Legend:
rat TRPV1 = target: T1, rat TRPV1 (Rattus norvegicus, UniProt O35433); experiment: Functional assay: block of capsaicin-induced Ca2+ influx, rat assay (rTRPV1/HEK293, FLIPR); type: cell-based; settings: rTRPV1/HEK293 cells, capsaicin challenge, Fluo-3 fluorescence; mean; > value = solubility limit in assay medium
T1 construct: expressed in transfected cells; host or cells: HEK293 (rTRPV1/HEK293), geneticin selection
In short: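 Compounds, as free base or TFA salt, tested from 10 μM in three-fold steps on rTRPV1-transfected HEK293 cells, with 30 min preincubation in low-calcium (20 μM) buffer. Capsaicin-evoked Ca2+ influx measured by FLIPR fluo3 signal before and 100 s after addition. Averaged IC50 from non-linear fits.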

human TRPV1 = target: T2, human TRPV1 (Homo sapiens, UniProt Q8NER1); experiment: Functional assay: block of capsaicin-induced Ca2+ influx, human assay (hTRPV1/HEK293, FLIPR); type: cell-based; settings: hTRPV1/HEK293 cells, 150 nM capsaicin challenge, Fluo-3 fluorescence; mean; > value = solubility limit in assay medium
T2 construct: expressed in transfected cells; host or cells: HEK293 (hTRPV1/HEK293), zeocin selection
T2 sequence (Q8NER1 whole entry): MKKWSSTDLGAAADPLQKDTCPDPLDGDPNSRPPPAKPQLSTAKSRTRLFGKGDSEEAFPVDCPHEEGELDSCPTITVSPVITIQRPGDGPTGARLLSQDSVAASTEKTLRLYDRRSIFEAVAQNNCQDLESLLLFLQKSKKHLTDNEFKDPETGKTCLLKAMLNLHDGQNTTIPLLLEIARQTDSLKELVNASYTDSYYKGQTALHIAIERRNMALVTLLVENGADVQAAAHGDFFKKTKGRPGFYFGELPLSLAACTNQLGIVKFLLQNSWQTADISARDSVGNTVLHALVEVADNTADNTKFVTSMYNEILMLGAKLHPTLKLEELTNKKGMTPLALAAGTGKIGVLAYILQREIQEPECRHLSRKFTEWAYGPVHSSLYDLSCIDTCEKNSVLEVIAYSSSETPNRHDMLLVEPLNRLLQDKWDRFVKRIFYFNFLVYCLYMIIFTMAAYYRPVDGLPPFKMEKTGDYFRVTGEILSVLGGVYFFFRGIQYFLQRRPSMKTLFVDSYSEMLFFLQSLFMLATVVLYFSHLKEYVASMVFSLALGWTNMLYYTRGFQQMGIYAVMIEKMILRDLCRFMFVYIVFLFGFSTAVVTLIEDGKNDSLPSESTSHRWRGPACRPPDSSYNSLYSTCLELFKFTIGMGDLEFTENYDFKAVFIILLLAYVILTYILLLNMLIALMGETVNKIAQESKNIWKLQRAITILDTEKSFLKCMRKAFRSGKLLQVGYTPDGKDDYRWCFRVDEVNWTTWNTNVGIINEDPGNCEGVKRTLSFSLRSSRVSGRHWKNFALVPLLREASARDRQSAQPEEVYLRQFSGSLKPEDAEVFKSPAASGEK
In short: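 HEK293 cells stably expressing human TRPV1, fluo3-loaded, preincubated 30 min with compound (serial 3-fold dilutions from 10 μM, duplicate) in 20 μM Ca2+ buffer. Capsaicin response taken as fluo3 fluorescence change before vs 100 s after agonist; IC50 by non-linear regression, mean values; free base or TFA salt.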

T1 sequence (O35433 whole entry): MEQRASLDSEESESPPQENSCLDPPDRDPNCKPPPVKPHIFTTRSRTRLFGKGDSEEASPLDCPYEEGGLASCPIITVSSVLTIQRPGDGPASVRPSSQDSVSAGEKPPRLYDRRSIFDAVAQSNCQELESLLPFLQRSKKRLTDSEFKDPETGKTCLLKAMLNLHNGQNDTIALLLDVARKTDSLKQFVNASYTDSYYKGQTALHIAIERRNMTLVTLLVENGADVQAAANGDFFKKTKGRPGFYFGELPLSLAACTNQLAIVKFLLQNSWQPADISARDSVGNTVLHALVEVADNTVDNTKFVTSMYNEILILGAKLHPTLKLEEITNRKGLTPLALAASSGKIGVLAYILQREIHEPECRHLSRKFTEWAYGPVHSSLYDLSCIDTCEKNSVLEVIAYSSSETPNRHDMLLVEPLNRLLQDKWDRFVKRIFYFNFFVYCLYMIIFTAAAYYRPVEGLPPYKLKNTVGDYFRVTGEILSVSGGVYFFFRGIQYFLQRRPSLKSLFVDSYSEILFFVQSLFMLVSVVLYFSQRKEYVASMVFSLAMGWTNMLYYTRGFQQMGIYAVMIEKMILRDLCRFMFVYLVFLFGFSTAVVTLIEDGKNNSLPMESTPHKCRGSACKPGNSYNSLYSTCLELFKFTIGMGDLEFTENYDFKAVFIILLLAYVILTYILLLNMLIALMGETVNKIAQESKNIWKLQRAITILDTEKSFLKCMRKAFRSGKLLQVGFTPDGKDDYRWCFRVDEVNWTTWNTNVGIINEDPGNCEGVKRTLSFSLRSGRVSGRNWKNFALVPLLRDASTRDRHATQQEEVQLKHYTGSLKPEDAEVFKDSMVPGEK

Row | Structure (SMILES) | IC50 (rat TRPV1) | IC50 (human TRPV1)
1 | Cc1ccc(Nc2ncnc3sc(Nc4c(C)cccc4C)nc23)cc1O [Example 160, 5-[2-(2,6-Dimethyl-phenylamino)-thiazolo[5,4-d]pyrimidin-7-ylamino]-2-methyl-phenol] | > 6670 nM | 2990 nM
2 | Cc1nc(Nc2ccc(SC(F)(F)F)c(Cl)c2)c2nc(Nc3c(C)cccc3C)sc2n1 [Example 131, N^7-(3-Chloro-4-trifluoromethylsulfanyl-phenyl)-N^2-(2,6-dimethyl-phenyl)-5-methyl-thiazolo[5,4-d]pyrimidine-2,7-diamine] | 140 nM | 171 nM
3 | CC(C)N1CCN(c2nc(Nc3ccc(C(F)(F)F)cc3)c3nc(Nc4c(Cl)cccc4Cl)sc3n2)CC1 [Example 69, N^2-(2,6-Dichloro-phenyl)-5-(4-isopropyl-piperazin-1-yl)-N^7-(4-trifluoromethyl-phenyl)-thiazolo[5,4-d]pyrimidine-2,7-diamine] | 154 nM | 185 nM
4 | CSc1nc(Nc2ccc(C(F)(F)F)cc2)c2nc(Nc3c(Cl)cccc3Cl)sc2n1 [Example 52, N^2-(2,6-Dichloro-phenyl)-5-methylsulfanyl-N^7-(4-trifluoromethyl-phenyl)-thiazolo[5,4-d]pyrimidine-2,7-diamine] | 154 nM | 226 nM
5 | COC[C@@H]1CCCN1c1nc(Nc2ccc(C(F)(F)F)cc2)c2nc(Nc3c(Cl)cccc3Cl)sc2n1 [Example 193, (2S)-N^2-(2,6-Dichloro-phenyl)-5-(2-methoxymethyl-pyrrolidin-1-yl)-N^7-(4-trifluoromethyl-phenyl)-thiazolo[5,4-d]pyrimidine-2,7-diamine] | 36 nM | 35 nM
6 | CC1CCCN1c1nc(Nc2ccc(S(C)(=O)=O)cc2)c2nc(Nc3c(Cl)cccc3Cl)sc2n1 (racemic) [Example 117, (racemic)-N^2-(2,6-Dichloro-phenyl)-N^7-(4-methanesulfonyl-phenyl)-5-(2-methyl-pyrrolidin-1-yl)-thiazolo[5,4-d]pyrimidine-2,7-diamine] | 7 nM | 50 nM
7 | CSc1ccc(Nc2nc(C)nc3sc(Nc4c(C)cccc4C)nc23)cc1 [Example 114, N^2-(2,6-Dimethyl-phenyl)-5-methyl-N^7-(4-methylsulfanyl-phenyl)-thiazolo[5,4-d]pyrimidine-2,7-diamine] | 13 nM | 39 nM
8 | Cc1nc(Nc2ccc(C(F)(F)F)nc2)c2nc(Nc3c(C)cccc3C)sc2n1 [Example 246, N^2-(2,6-Dimethyl-phenyl)-5-methyl-N^7-(6-trifluoromethyl-pyridin-3-yl)-thiazolo[5,4-d]pyrimidine-2,7-diamine] | 22 nM | 18 nM
9 | CN(C)CCN(C)c1nc(Nc2ccc(C(F)(F)F)cc2)c2nc(Nc3c(Cl)cccc3Cl)sc2n1 [Example 182, N^2-(2,6-Dichloro-phenyl)-N^5-(2-dimethhylamino-ethyl)-methyl-N^7-(4-trifluoromethyl-phenyl)-thiazolo[5,4-d]pyrimidine-2,5,7-triamine] | 1820 nM | 1320 nM
10 | CC(C)CNc1nc(Nc2ccc(C(F)(F)F)cc2)c2nc(Nc3c(Cl)cccc3Cl)sc2n1 [Example 79, N^2-(2,6-Dichloro-phenyl)-N^5-isobutyl-N^7-(4-trifluoromethyl-phenyl)-thiazolo[5,4-d]pyrimidine-2,5,7-triamine] | 1 nM | 2 nM
11 | Cc1cccc(C)c1Nc1nc2c(Nc3ccc(OC4CCOC4)cc3)ncnc2s1 (racemic) [Example 154, (racemic)-N^2-(2,6-Dimethyl-phenyl)-N^7-[4-(tetrahydro-furan-3-yloxy)-phenyl]-thiazolo[5,4-d]pyrimidine-2,7-diamine] | 1860 nM | 1520 nM
12 | FC(F)(F)c1ccc(Nc2nc(NCCCN3CCOCC3)nc3sc(Nc4c(Cl)cccc4Cl)nc23)cc1 [Example 100, N^2-(2,6-Dichloro-phenyl)-N^5-(3-morpholin-4-yl-propyl)-N^7-(4-trifluoromethyl-phenyl)-thiazolo[5,4-d]pyrimidine-2,5,7-triamine] | 6 nM | 17 nM
13 | CC(C)(C)c1ccc(Nc2ncnc3sc(Nc4c(Cl)cccc4Cl)nc23)cc1 [Example 3, N^7-(4-tert-Butyl-phenyl)-N^2-(2,6-dichloro-phenyl)-thiazolo[5,4-d]pyrimidine-2,7-diamine] | 1 nM | 14 nM
14 | CC(C)(C#N)c1ccc(Nc2ncnc3sc(Nc4c(Cl)cccc4Cl)nc23)cc1 [Example 228, 2-[4-({2-[(2,6-Dichlorophenyl)amino][1,3]thiazolo[5,4-d]pyrimidin-7-yl}amino)phenyl]-2-methylpropanenitrile] | 98 nM | 101 nM
15 | Cc1nc(N(C)c2ccc(C(F)(F)F)cc2)c2nc(Nc3c(Cl)cccc3Cl)sc2n1 [Example 9, N^2-(2,6-Dichloro-phenyl)-5,N^7-dimethyl-N^7-(4-trifluoromethyl-phenyl)-thiazolo[5,4-d]pyrimidine-2,7-diamine] | > 20000 nM | > 20000 nM
16 | Cc1cccc(C)c1Nc1nc2c(Nc3ccc(C#N)nc3)ncnc2s1 [Example 29, 5-[2-(2,6-Dimethyl-phenylamino)-thiazolo[5,4-d]pyrimidin-7-ylamino]-pyridine-2-carbonitrile] | 178 nM | 207 nM
17 | CCN(CC)c1nc(Nc2ccc(C(F)(F)F)cc2)c2nc(Nc3c(Cl)cccc3Cl)sc2n1 [Example 188, N^2-(2,6-Dichloro-phenyl)-N^5,N^5-diethyl-N^7-(4-trifluoromethyl-phenyl)-thiazolo[5,4-d]pyrimidine-2,5,7-triamine] | 40 nM | 36 nM
18 | Cc1nc(Nc2ccc([S+](C)[O-])cc2)c2nc(Nc3c(C)cccc3C)sc2n1 (racemic) [Example 143, (racemic)-N^2-(2,6-Dimethyl-phenyl)-N^7-(4-methanesulfinyl-phenyl)-5-methyl-thiazolo[5,4-d]pyrimidine-2,7-diamine] | 279 nM | 423 nM
19 | OCC1CN(c2nc(Nc3ccc(C(F)(F)F)c(Cl)c3)c3nc(Nc4c(Cl)cccc4Cl)sc3n2)CCO1 (racemic) [Example 155, (racemic)-{4-[7-(3-Chloro-4-trifluoromethyl-phenylamino)-2-(2,6-dichloro-phenylamino)-thiazolo[5,4-d]pyrimidin-5-yl]-morpholin-2-yl}-methanol] | 414 nM | 1540 nM

Continued, values first:

Row | IC50 (rat TRPV1) | IC50 (human TRPV1) | Structure (SMILES)
20 | 874 nM | 386 nM | CS(=O)(=O)c1ccccc1Nc1nc2c(Nc3ccc(S(=O)(=O)C(F)(F)F)cc3)ncnc2s1 [Example 200, N^2-(2-Methanesulfonyl-phenyl)-N^7-(4-trifluoromethanesulfonyl-phenyl)-thiazolo[5,4-d]pyrimidine-2,7-diamine]
21 | 38 nM | 134 nM | COC(=O)c1ccc(Nc2ncnc3sc(Nc4c(C)cccc4C)nc23)cc1 [Example 37, 4-[2-(2,6-Dimethyl-phenylamino)-thiazolo[5,4-d]pyrimidin-7-ylamino]-benzoic acid methyl ester]
22 | 1 nM | 5 nM | CS(=O)(=O)c1ccc(Nc2ncnc3sc(Nc4c(Cl)cccc4Cl)nc23)cc1F [Example 82, N^2-(2,6-Dichloro-phenyl)-N^7-(3-fluoro-4-methanesulfonyl-phenyl)-thiazolo[5,4-d]pyrimidine-2,7-diamine]
23 | 11 nM | 45 nM | Cc1ccccc1Nc1nc2c(Nc3ccc(S(C)(=O)=O)cc3)ncnc2s1 [Example 116, N^7-(4-Methanesulfonyl-phenyl)-N^2-o-tolyl-thiazolo[5,4-d]pyrimidine-2,7-diamine]
24 | 1580 nM | 5530 nM | Cc1noc(C)c1Nc1nc2c(Nc3ccc(S(C)(=O)=O)cc3)ncnc2s1 [Example 224, N^2-(3,5-Dimethylisoxazol-4-yl)-N^7-[4-(methylsulfonyl)phenyl][1,3]thiazolo[5,4-d]pyrimidine-2,7-diamine]
25 | ≥ 6670 nM | ≥ 6670 nM | Cc1cccnc1Nc1nc2c(Nc3ccc(C(F)(F)F)cc3)ncnc2s1 [Example 213, N^2-(3-Methyl-pyridin-2-yl)-N^7-(4-trifluoromethyl-phenyl)-thiazolo[5,4-d]pyrimidine-2,7-diamine]
26 | > 6670 nM | > 6670 nM | Cc1cccc(C)c1Nc1nc2c(NCc3ccccc3)ncnc2s1 [Example 43, N^7-Benzyl-N^2-(2,6-dimethyl-phenyl)-thiazolo[5,4-d]pyrimidine-2,7-diamine]
27 | 59 nM | 97 nM | Cc1cccc(C)c1Nc1nc2c(Nc3ccc(Br)cc3)ncnc2s1 [Example 123, N^7-(4-Bromo-phenyl)-N^2-(2,6-dimethyl-phenyl)-thiazolo[5,4-d]pyrimidine-2,7-diamine]
28 | 32 nM | 91 nM | FC(F)(F)c1ccc(Nc2ncnc3sc(Nc4ccccc4C(F)(F)F)nc23)cc1 [Example 225, N^2-[2-(Trifluoromethyl)phenyl]-N^7-[4-(trifluoromethyl)phenyl][1,3]thiazolo[5,4-d]pyrimidine-2,7-diamine]
29 | 5 nM | 8 nM | Cc1cccc(C)c1Nc1nc2c(Nc3ccc(C(C)C)cc3)ncnc2s1 [Example 46, N^2-(2,6-Dimethyl-phenyl)-N^7-(4-isopropyl-phenyl)-thiazolo[5,4-d]pyrimidine-2,7-diamine]
30 | 4 nM | 7 nM | CN1CCN(S(=O)(=O)c2ccc(Nc3ncnc4sc(Nc5c(Cl)cccc5Cl)nc34)cc2)CC1 [Example 88, N^2-(2,6-Dichloro-phenyl)-N^7-[4-(4-methyl-piperazine-1-sulfonyl)-phenyl]-thiazolo[5,4-d]pyrimidine-2,7-diamine]
